Test results reported in PMC4920643 (Neuropharmacology, 2016).

Columns and labels:
5-HT3A receptors = target: T1, 5-HT3A receptors (Homo sapiens, UniProt P46098); format: cell-based
T1 construct: expressed in transfected cells; host or cells: Xenopus oocytes injected with cRNA (pGEMHE)
T1 sequence (P46098 24-478): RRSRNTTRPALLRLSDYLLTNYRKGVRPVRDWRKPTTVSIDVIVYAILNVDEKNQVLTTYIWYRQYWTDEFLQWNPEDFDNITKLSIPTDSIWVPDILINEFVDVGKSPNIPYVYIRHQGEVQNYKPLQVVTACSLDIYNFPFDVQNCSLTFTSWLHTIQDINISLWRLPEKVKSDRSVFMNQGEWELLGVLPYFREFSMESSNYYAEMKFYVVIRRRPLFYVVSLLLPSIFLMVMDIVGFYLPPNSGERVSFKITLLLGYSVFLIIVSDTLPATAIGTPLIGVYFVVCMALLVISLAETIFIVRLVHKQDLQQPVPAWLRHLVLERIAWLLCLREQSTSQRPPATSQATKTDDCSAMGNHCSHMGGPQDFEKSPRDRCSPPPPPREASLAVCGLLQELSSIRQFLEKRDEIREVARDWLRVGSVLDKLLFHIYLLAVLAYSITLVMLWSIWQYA

5-HT3 receptor [1] = conditions: cited from earlier work
5-HT3 receptor [2] = conditions: cited from earlier work; remark: listed apart in the source
[3] = target: nicotinic acetylcholine receptors; conditions: read-out: IC50, block of nicotinic acetylcholine receptors; cited from earlier work
α7 nACh receptors = conditions: cited from earlier work
5-HT3 receptors = conditions: cited from earlier work

NCCc1c[nH]c2ccc(O)cc12 [5-HT]
Hill slope of agonist concentration-response curve (5-HT3A receptors): 2.06 ± 0.14 | desensitisation time constant τ of inward current (5-HT3A receptors): 42 ± 5 s

CN1[C@@H]2C[C@@H](OC(=O)c3c[nH]c4ccccc34)C[C@H]1[C@@H]1O[C@@H]12 [SDZ-ICT 322]
pA2 (5-HT3 receptor [1]): 10.6 | pKd (5-HT3 receptor [2]): 9.2

CN1[C@@H]2C[C@@H](OC(=O)[C@H](CO)c3ccccc3)C[C@H]1[C@@H]1O[C@@H]12 [scopolamine]
IC50 [3]: 928 µM | expression of α7 nACh receptors (α7 nACh receptors): increases the expression

CN1C2CCC1CC(OC(=O)c1ccccc1)C2 (stereo not shown) [tropane benzoate]
affinity at 5-HT3 receptors (5-HT3 receptors): 63 nM
